Data taken from the NIST ThermoML archive (doi:10.1016/j.jct.2004.01.006).
Numbers after ± are expanded uncertainties.

Assay: Molar enthalpy of transition or fusion
Conditions: Crystal; Adiabatic calorimetry

O=Cc1ccc(Cl)cc1Cl [2,4-dichlorobenzaldehyde]
Molar enthalpy of transition or fusion: 4.892 ± 0.0167 kcal/mol
